Test results taken from patent US20220213047A1, “CARBONIC ANHYDRASE INHIBITORS FOR TREATMENT OF NEISSERIA GONORRHOEAE INFECTION” (Purdue Research Foundation, priority 2021, published 2022).
Values after ≈ are worked out from the molar mass of the structure shown.

How the values were obtained:
N. gonorrhoeae [1] = assay: MIC by agar dilution on a larger panel of N. gonorrhoeae strains; format: cell-based, Neisseria gonorrhoeae; conditions: Neisseria gonorrhoeae
Protocol: (§1) These tests were performed in normal culture conditions with standard CO2 levels and in CO2 (5% in incubator) conditions.

N. gonorrhoeae [2] = assay: MIC against N. gonorrhoeae clinical isolates, normal and CO2 conditions; format: cell-based; conditions: Neisseria gonorrhoeae
Protocol: as §1

[3] = strain panel of Table 9, CO2 (5% CO2 containing air)

MIC (N. gonorrhoeae [1]; N. gonorrhoeae 165, CO2 (5% CO2 containing air), read-out: MIC): > 128 µg/mL
MIC (N. gonorrhoeae [1]; N. gonorrhoeae 165, Non CO2 (ambient air), read-out: MIC): 2 µg/mL (≈ 6.55 µM)
MIC (N. gonorrhoeae [1]; N. gonorrhoeae 166, CO2 (5% CO2 containing air), read-out: MIC): > 128 µg/mL
MIC (N. gonorrhoeae [1]; N. gonorrhoeae 166, Non CO2 (ambient air), read-out: MIC): 8 µg/mL (≈ 26.2 µM)
MIC (N. gonorrhoeae [1]; N. gonorrhoeae 167, CO2 (5% CO2 containing air), read-out: MIC): > 128 µg/mL
MIC (N. gonorrhoeae [1]; N. gonorrhoeae 167, Non CO2 (ambient air), read-out: MIC): 4 µg/mL (≈ 13.1 µM)
MIC (N. gonorrhoeae [1]; N. gonorrhoeae 170, CO2 (5% CO2 containing air), read-out: MIC): > 128 µg/mL
MIC (N. gonorrhoeae [1]; N. gonorrhoeae 170, Non CO2 (ambient air), read-out: MIC): 64 µg/mL (≈ 210 µM)
MIC (N. gonorrhoeae [1]; N. gonorrhoeae 171, CO2 (5% CO2 containing air), read-out: MIC): > 128 µg/mL
MIC (N. gonorrhoeae [1]; N. gonorrhoeae 171, Non CO2 (ambient air), read-out: MIC): 1 µg/mL (≈ 3.28 µM)
MIC (N. gonorrhoeae [1]; N. gonorrhoeae 173, CO2 (5% CO2 containing air), read-out: MIC): > 128 µg/mL
MIC (N. gonorrhoeae [1]; N. gonorrhoeae 173, Non CO2 (ambient air), read-out: MIC): 2 µg/mL (≈ 6.55 µM)
MIC (N. gonorrhoeae [1]; N. gonorrhoeae 174, CO2 (5% CO2 containing air), read-out: MIC): > 128 µg/mL
MIC (N. gonorrhoeae [1]; N. gonorrhoeae 174, Non CO2 (ambient air), read-out: MIC): 2 µg/mL (≈ 6.55 µM)
MIC (N. gonorrhoeae [1]; N. gonorrhoeae 175, CO2 (5% CO2 containing air), read-out: MIC): > 128 µg/mL
MIC (N. gonorrhoeae [1]; N. gonorrhoeae 175, Non CO2 (ambient air), read-out: MIC): 16 µg/mL (≈ 52.4 µM)
MIC (N. gonorrhoeae [1]; N. gonorrhoeae 176, CO2 (5% CO2 containing air), read-out: MIC): > 128 µg/mL
MIC (N. gonorrhoeae [1]; N. gonorrhoeae 176, Non CO2 (ambient air), read-out: MIC): 4 µg/mL (≈ 13.1 µM)
MIC (N. gonorrhoeae [1]; N. gonorrhoeae 177, CO2 (5% CO2 containing air), read-out: MIC): 128 µg/mL (≈ 419 µM)
MIC (N. gonorrhoeae [1]; N. gonorrhoeae 177, Non CO2 (ambient air), read-out: MIC): 4 µg/mL (≈ 13.1 µM)
MIC (N. gonorrhoeae [1]; N. gonorrhoeae 178, CO2 (5% CO2 containing air), read-out: MIC): > 128 µg/mL
MIC (N. gonorrhoeae [1]; N. gonorrhoeae 178, Non CO2 (ambient air), read-out: MIC): 1 µg/mL (≈ 3.28 µM)
MIC (N. gonorrhoeae [1]; N. gonorrhoeae 179, CO2 (5% CO2 containing air), read-out: MIC): > 128 µg/mL
MIC (N. gonorrhoeae [1]; N. gonorrhoeae 179, Non CO2 (ambient air), read-out: MIC): 8 µg/mL (≈ 26.2 µM)
MIC (N. gonorrhoeae [1]; N. gonorrhoeae 180, CO2 (5% CO2 containing air), read-out: MIC): > 128 µg/mL
MIC (N. gonorrhoeae [1]; N. gonorrhoeae 180, Non CO2 (ambient air), read-out: MIC): 8 µg/mL (≈ 26.2 µM)
MIC (N. gonorrhoeae [1]; N. gonorrhoeae 181, CO2 (5% CO2 containing air), read-out: MIC): 128 µg/mL (≈ 419 µM)
MIC (N. gonorrhoeae [1]; N. gonorrhoeae 181, Non CO2 (ambient air), read-out: MIC): 8 µg/mL (≈ 26.2 µM)
MIC (N. gonorrhoeae [1]; N. gonorrhoeae 182, CO2 (5% CO2 containing air), read-out: MIC): > 128 µg/mL
MIC (N. gonorrhoeae [1]; N. gonorrhoeae 182, Non CO2 (ambient air), read-out: MIC): 16 µg/mL (≈ 52.4 µM)
MIC (N. gonorrhoeae [1]; N. gonorrhoeae 183, CO2 (5% CO2 containing air), read-out: MIC): 128 µg/mL (≈ 419 µM)
MIC (N. gonorrhoeae [1]; N. gonorrhoeae 183, Non CO2 (ambient air), read-out: MIC): 1 µg/mL (≈ 3.28 µM)
MIC (N. gonorrhoeae [1]; N. gonorrhoeae 184, CO2 (5% CO2 containing air), read-out: MIC): > 128 µg/mL
MIC (N. gonorrhoeae [1]; N. gonorrhoeae 184, Non CO2 (ambient air), read-out: MIC): 4 µg/mL (≈ 13.1 µM)
MIC (N. gonorrhoeae [1]; N. gonorrhoeae 185, CO2 (5% CO2 containing air), read-out: MIC): > 128 µg/mL
MIC (N. gonorrhoeae [1]; N. gonorrhoeae 185, Non CO2 (ambient air), read-out: MIC): 8 µg/mL (≈ 26.2 µM)
MIC (N. gonorrhoeae [1]; N. gonorrhoeae 186, CO2 (5% CO2 containing air), read-out: MIC): > 128 µg/mL
MIC (N. gonorrhoeae [1]; N. gonorrhoeae 186, Non CO2 (ambient air), read-out: MIC): 8 µg/mL (≈ 26.2 µM)
MIC (N. gonorrhoeae [1]; N. gonorrhoeae 188, CO2 (5% CO2 containing air), read-out: MIC): > 128 µg/mL
MIC (N. gonorrhoeae [1]; N. gonorrhoeae 188, Non CO2 (ambient air), read-out: MIC): 1 µg/mL (≈ 3.28 µM)
MIC (N. gonorrhoeae [1]; N. gonorrhoeae 191, CO2 (5% CO2 containing air), read-out: MIC): > 128 µg/mL
MIC (N. gonorrhoeae [1]; N. gonorrhoeae 191, Non CO2 (ambient air), read-out: MIC): 4 µg/mL (≈ 13.1 µM)
MIC (N. gonorrhoeae [1]; N. gonorrhoeae 193, CO2 (5% CO2 containing air), read-out: MIC): 128 µg/mL (≈ 419 µM)
MIC (N. gonorrhoeae [1]; N. gonorrhoeae 193, Non CO2 (ambient air), read-out: MIC): 4 µg/mL (≈ 13.1 µM)
MIC (N. gonorrhoeae [1]; N. gonorrhoeae 194, CO2 (5% CO2 containing air), read-out: MIC): 128 µg/mL (≈ 419 µM)
MIC (N. gonorrhoeae [1]; N. gonorrhoeae 194, Non CO2 (ambient air), read-out: MIC): 4 µg/mL (≈ 13.1 µM)
MIC (N. gonorrhoeae [1]; N. gonorrhoeae 196, CO2 (5% CO2 containing air), read-out: MIC): > 128 µg/mL
MIC (N. gonorrhoeae [1]; N. gonorrhoeae 196, Non CO2 (ambient air), read-out: MIC): 1 µg/mL (≈ 3.28 µM)
MIC (N. gonorrhoeae [1]; N. gonorrhoeae 197, CO2 (5% CO2 containing air), read-out: MIC): > 128 µg/mL
MIC (N. gonorrhoeae [1]; N. gonorrhoeae 197, Non CO2 (ambient air), read-out: MIC): 4 µg/mL (≈ 13.1 µM)
MIC (N. gonorrhoeae [1]; N. gonorrhoeae 198, CO2 (5% CO2 containing air), read-out: MIC): > 128 µg/mL
MIC (N. gonorrhoeae [1]; N. gonorrhoeae 198, Non CO2 (ambient air), read-out: MIC): 1 µg/mL (≈ 3.28 µM)
MIC (N. gonorrhoeae [1]; N. gonorrhoeae 200, CO2 (5% CO2 containing air), read-out: MIC): > 128 µg/mL
MIC (N. gonorrhoeae [1]; N. gonorrhoeae 200, Non CO2 (ambient air), read-out: MIC): 32 µg/mL (≈ 105 µM)
MIC (N. gonorrhoeae [1]; N. gonorrhoeae 202, CO2 (5% CO2 containing air), read-out: MIC): > 128 µg/mL
MIC (N. gonorrhoeae [1]; N. gonorrhoeae 202, Non CO2 (ambient air), read-out: MIC): 16 µg/mL (≈ 52.4 µM)
MIC (N. gonorrhoeae [1]; N. gonorrhoeae 203, CO2 (5% CO2 containing air), read-out: MIC): > 128 µg/mL
MIC (N. gonorrhoeae [1]; N. gonorrhoeae 203, Non CO2 (ambient air), read-out: MIC): 1 µg/mL (≈ 3.28 µM)
MIC (N. gonorrhoeae [1]; N. gonorrhoeae 205, CO2 (5% CO2 containing air), read-out: MIC): > 128 µg/mL
MIC (N. gonorrhoeae [1]; N. gonorrhoeae 205, Non CO2 (ambient air), read-out: MIC): 16 µg/mL (≈ 52.4 µM)
MIC (N. gonorrhoeae [1]; N. gonorrhoeae 206, CO2 (5% CO2 containing air), read-out: MIC): > 128 µg/mL
MIC (N. gonorrhoeae [1]; N. gonorrhoeae 206, Non CO2 (ambient air), read-out: MIC): 4 µg/mL (≈ 13.1 µM)
MIC (N. gonorrhoeae [1]; N. gonorrhoeae 207, CO2 (5% CO2 containing air), read-out: MIC): > 128 µg/mL
MIC (N. gonorrhoeae [1]; N. gonorrhoeae 207, Non CO2 (ambient air), read-out: MIC): 4 µg/mL (≈ 13.1 µM)
MIC (N. gonorrhoeae [1]; N. gonorrhoeae 208, CO2 (5% CO2 containing air), read-out: MIC): > 128 µg/mL
MIC (N. gonorrhoeae [1]; N. gonorrhoeae 208, Non CO2 (ambient air), read-out: MIC): 4 µg/mL (≈ 13.1 µM)
MIC (N. gonorrhoeae [1]; N. gonorrhoeae 209, CO2 (5% CO2 containing air), read-out: MIC): > 128 µg/mL
MIC (N. gonorrhoeae [1]; N. gonorrhoeae 209, Non CO2 (ambient air), read-out: MIC): 1 µg/mL (≈ 3.28 µM)
MIC (N. gonorrhoeae [1]; N. gonorrhoeae 210, CO2 (5% CO2 containing air), read-out: MIC): > 128 µg/mL
MIC (N. gonorrhoeae [1]; N. gonorrhoeae 210, Non CO2 (ambient air), read-out: MIC): 4 µg/mL (≈ 13.1 µM)
MIC (N. gonorrhoeae [1]; N. gonorrhoeae 211, CO2 (5% CO2 containing air), read-out: MIC): > 64 µg/mL
MIC (N. gonorrhoeae [1]; N. gonorrhoeae 211, Non CO2 (ambient air), read-out: MIC): 1 µg/mL (≈ 3.28 µM)
MIC (N. gonorrhoeae [1]; N. gonorrhoeae 212, CO2 (5% CO2 containing air), read-out: MIC): > 128 µg/mL
MIC (N. gonorrhoeae [1]; N. gonorrhoeae 212, Non CO2 (ambient air), read-out: MIC): 32 µg/mL (≈ 105 µM)
MIC (N. gonorrhoeae [1]; N. gonorrhoeae 213, CO2 (5% CO2 containing air), read-out: MIC): > 128 µg/mL
MIC (N. gonorrhoeae [1]; N. gonorrhoeae 213, Non CO2 (ambient air), read-out: MIC): 16 µg/mL (≈ 52.4 µM)
MIC (N. gonorrhoeae [1]; N. gonorrhoeae 214, CO2 (5% CO2 containing air), read-out: MIC): > 128 µg/mL
MIC (N. gonorrhoeae [1]; N. gonorrhoeae 214, Non CO2 (ambient air), read-out: MIC): 1 µg/mL (≈ 3.28 µM)
MIC50 (N. gonorrhoeae [1]; [3]): > 128 µg/mL
MIC90 (N. gonorrhoeae [1]; [3]): > 128 µg/mL
MIC (N. gonorrhoeae [1]; strain panel of Table 9, CO2 (5% CO2 containing air), read-out: Modal MIC): > 128 µg/mL
MIC50 (N. gonorrhoeae [1]; strain panel of Table 9, Non CO2 (ambient air)): 4 µg/mL (≈ 13.1 µM)
MIC (N. gonorrhoeae [1]; strain panel of Table 9, Non CO2 (ambient air), read-out: Modal MIC): 4 µg/mL (≈ 13.1 µM)
MIC90 (N. gonorrhoeae [1]; strain panel of Table 9, Non CO2 (ambient air, standard CO2 conditions)): 16 µg/mL (≈ 52.4 µM)
SMILES: NS(=O)(=O)c1cc(Cl)c(Cl)c(S(N)(=O)=O)c1 [Dichlorphenamide]
MIC (N. gonorrhoeae [2]; N. gonorrhoeae 178, Non CO2 environment): 2 µg/mL (≈ 6.55 µM)
MIC (N. gonorrhoeae [2]; N. gonorrhoeae 178, normal growth environment (with CO2)): > 64 µg/mL
MIC (N. gonorrhoeae [2]; N. gonorrhoeae 181, Non CO2 environment): 8 µg/mL (≈ 26.2 µM)
MIC (N. gonorrhoeae [2]; N. gonorrhoeae 181, normal growth environment (with CO2)): > 64 µg/mL
MIC (N. gonorrhoeae [2]; N. gonorrhoeae 194, Non CO2 environment): 4 µg/mL (≈ 13.1 µM)
MIC (N. gonorrhoeae [2]; N. gonorrhoeae 194, normal growth environment (with CO2)): > 64 µg/mL
